Publication PMC12175894 (Science Advances, 2025)
Positions count from the first letter of the chain named. Entries after “also recorded” stand apart in the source; their conditions may differ. Read-outs that look alike come from different tables or passages of the source.

Experiments:
neurotensin NTS1 = neurotensin NTS1 (Homo sapiens, UniProt P30989); test: Radioligand displacement, [3H]NT(8-13)
adrenergic α2B = adrenergic α2B (Homo sapiens, UniProt P18089); test: Radioligand displacement, [3H]RX821002
Sequence of adrenergic α2B (P18089 whole entry): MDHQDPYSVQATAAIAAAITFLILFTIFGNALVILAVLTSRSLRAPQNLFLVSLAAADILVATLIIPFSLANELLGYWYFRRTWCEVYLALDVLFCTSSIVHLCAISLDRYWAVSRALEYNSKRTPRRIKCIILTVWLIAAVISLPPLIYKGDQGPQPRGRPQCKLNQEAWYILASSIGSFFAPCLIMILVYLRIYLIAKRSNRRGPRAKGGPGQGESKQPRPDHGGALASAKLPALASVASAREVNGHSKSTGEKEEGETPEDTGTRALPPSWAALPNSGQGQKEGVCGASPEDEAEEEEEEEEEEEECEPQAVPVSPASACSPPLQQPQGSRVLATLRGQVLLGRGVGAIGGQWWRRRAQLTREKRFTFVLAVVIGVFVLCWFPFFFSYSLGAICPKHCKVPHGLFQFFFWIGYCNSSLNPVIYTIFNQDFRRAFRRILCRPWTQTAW

5-HT1AR wildtype [1] = target: T1, 5-HT1AR wildtype (Homo sapiens, UniProt P08908); test: β-arrestin 2 recruitment, enhanced bystander BRET in HEK293T with GRK2; assay type: cell-based; conditions: HEK-293T; read-out: Emax [% ± SEM], β-arrestin 2 recruitment
T1 construct: host or cells: HEK293T, HEK293A, HEK293AΔGs, HEK293AΔGi/o, HEK293AΔARRB1/B2
T1 sequence (P08908 1-422): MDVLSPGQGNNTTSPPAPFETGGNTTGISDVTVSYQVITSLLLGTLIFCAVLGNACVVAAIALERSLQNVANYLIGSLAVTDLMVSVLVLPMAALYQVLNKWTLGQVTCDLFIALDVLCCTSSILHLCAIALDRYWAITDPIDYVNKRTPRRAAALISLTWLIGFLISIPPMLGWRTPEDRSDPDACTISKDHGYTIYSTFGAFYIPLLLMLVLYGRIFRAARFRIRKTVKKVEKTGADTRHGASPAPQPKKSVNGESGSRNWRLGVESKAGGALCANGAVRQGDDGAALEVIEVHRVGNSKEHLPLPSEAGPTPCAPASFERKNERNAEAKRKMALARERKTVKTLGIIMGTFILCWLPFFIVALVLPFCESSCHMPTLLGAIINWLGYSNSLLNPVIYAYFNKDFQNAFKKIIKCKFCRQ

5-HT1AR KO mice = test: 52°C hot plate in 5-HT1AR KO mice; assay type: in vivo, mouse
male C56BL/6 mice [2] = test: 52°C hot plate; assay type: in vivo, mouse; conditions: wild-type mice, 10 mg/kg
dopamine D1 = dopamine D1 (Homo sapiens, UniProt P21728); test: Radioligand displacement, [3H]SCH23390
Sequence of dopamine D1 (P21728 whole entry): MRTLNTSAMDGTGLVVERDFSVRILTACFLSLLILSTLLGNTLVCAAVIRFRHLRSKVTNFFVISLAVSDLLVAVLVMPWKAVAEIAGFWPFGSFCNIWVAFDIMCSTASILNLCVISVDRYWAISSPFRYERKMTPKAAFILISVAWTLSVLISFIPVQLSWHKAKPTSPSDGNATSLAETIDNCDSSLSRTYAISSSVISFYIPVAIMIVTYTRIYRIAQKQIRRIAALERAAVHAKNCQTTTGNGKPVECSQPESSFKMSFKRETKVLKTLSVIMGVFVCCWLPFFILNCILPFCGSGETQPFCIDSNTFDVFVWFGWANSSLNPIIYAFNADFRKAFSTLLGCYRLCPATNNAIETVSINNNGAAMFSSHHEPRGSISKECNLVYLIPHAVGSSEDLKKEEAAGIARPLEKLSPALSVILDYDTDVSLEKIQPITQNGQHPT

[3] = target: T2, 5-HT1AR F112^3.28W + M92^2.60F (Homo sapiens, UniProt P08908, F112W/M92F); test: GloSensor inhibition of cAMP accumulation in HEK293AΔGs; assay type: cell-based; conditions: for Emax: read-out: Emax [% ± SEM], inhibition of cAMP accumulation
T2 sequence (P08908 1-422 M92F/F112W): T1 sequence (P08908 1-422) with M92F, F112W

mice [4] = test: Conditioned place preference; assay type: in vivo, mouse; conditions: 10 mg/kg i.p.
adrenergic α2C = adrenergic α2C (Homo sapiens, UniProt P18825); test: Radioligand displacement, [3H]RX821002
Sequence of adrenergic α2C (P18825 whole entry): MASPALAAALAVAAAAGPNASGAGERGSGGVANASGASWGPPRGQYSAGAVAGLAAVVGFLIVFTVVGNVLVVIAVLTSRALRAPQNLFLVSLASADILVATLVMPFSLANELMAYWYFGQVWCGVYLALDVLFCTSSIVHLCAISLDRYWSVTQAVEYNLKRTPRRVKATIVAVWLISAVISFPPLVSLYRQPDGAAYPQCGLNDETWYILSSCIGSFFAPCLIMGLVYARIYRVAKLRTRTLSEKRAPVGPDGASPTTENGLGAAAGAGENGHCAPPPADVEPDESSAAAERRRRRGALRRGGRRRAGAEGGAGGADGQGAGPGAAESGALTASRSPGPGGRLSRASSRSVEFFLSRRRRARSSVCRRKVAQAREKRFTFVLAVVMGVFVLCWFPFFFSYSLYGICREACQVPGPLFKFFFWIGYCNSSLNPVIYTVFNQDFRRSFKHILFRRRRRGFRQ

5-HT1AR [5] = target: T3, 5-HT1AR (Homo sapiens, UniProt P08908); test: β-arrestin 1 recruitment, enhanced bystander BRET in HEK293T with GRK2; conditions: HEK-293T, read-out: Emax, β-arrestin 1 recruitment
T3 sequence (P08908 1-422): T1 sequence (P08908 1-422)

mice [6] = test: Elevated plus maze; assay type: in vivo, mouse
5-HT1AR + Gαi2 = target: T4, 5-HT1AR + Gαi2 (Homo sapiens, UniProt P08908); test: GloSensor cAMP in HEK293AΔGi/o co-transfected with Gαi2; assay type: cell-based
T4 construct: host or cells: HEK293AΔGi/o
T4 sequence (P04899 2-355 partner limits assumed, one chain of several): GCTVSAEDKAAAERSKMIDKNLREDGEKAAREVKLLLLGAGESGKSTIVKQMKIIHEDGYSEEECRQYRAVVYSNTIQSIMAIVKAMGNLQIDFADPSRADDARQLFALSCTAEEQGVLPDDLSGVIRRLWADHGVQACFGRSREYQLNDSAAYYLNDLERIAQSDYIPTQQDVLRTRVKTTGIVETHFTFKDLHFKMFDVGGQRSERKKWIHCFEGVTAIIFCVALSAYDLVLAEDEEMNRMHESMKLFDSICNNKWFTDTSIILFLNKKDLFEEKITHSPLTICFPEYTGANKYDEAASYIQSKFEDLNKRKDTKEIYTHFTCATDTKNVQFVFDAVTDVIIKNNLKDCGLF

5-HT1AR [7] = target: T3, 5-HT1AR; test: cell-based
5-HT1AR [8] = target: T3, 5-HT1AR; test: High-throughput screening with radioligand displacement, single point; assay type: binding; design: host or cells: HEK293T, transient; membranes; conditions: compound at 10 nM
5-HT1AR + Gαi1 = 5-HT1AR + Gαi1 (Homo sapiens, UniProt P08908); test: cell-based
Sequence of 5-HT1AR + Gαi1 (P63096 2-354 partner limits assumed, one chain of several): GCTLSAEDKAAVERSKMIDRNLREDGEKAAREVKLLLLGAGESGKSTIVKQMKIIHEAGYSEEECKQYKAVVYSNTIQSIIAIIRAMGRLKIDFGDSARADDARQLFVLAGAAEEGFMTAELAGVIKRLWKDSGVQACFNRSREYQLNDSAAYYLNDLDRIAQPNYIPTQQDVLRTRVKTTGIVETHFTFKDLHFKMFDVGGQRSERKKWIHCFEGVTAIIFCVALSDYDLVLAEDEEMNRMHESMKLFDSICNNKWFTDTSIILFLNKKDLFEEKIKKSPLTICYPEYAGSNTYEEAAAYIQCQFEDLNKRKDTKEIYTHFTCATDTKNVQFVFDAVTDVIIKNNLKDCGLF

5-HT1BR = 5-HT1BR (Homo sapiens, UniProt P28222); test: BRET Gαi1 activation
Sequence of 5-HT1BR (P28222 whole entry): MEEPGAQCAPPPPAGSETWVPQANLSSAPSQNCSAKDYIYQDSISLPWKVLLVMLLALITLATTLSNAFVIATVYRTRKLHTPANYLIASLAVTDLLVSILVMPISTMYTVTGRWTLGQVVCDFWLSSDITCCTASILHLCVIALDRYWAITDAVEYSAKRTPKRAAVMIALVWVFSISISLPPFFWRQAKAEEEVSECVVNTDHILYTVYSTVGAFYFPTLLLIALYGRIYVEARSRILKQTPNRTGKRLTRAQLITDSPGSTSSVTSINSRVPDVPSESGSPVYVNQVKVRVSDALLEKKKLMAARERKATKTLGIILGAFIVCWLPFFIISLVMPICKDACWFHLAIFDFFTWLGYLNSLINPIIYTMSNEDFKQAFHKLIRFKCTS

male C56BL/6 mice [9] = test: Hargreaves test; assay type: in vivo, mouse; conditions: for response latency, Hargreaves: 10 mg/kg i.p.
5-HT1AR [10] = target: T3, 5-HT1AR; test: BRET-based cAMP assay (CAMYEL biosensor) in CHO-K1 cells; assay type: cell-based
male C56BL/6 mice [11] = test: von Frey assay, hind paw mechanical thresholds; assay type: in vivo, mouse; conditions: 10 mg/kg i.p., 30 min after injection
5-HT2AR = target: T5, 5-HT2AR (Homo sapiens, UniProt P28223); test: Radioligand competition, displacement of [3H]ketanserin; assay type: binding
T5 construct: whole cells for IP-One
T5 sequence (P28223 whole entry): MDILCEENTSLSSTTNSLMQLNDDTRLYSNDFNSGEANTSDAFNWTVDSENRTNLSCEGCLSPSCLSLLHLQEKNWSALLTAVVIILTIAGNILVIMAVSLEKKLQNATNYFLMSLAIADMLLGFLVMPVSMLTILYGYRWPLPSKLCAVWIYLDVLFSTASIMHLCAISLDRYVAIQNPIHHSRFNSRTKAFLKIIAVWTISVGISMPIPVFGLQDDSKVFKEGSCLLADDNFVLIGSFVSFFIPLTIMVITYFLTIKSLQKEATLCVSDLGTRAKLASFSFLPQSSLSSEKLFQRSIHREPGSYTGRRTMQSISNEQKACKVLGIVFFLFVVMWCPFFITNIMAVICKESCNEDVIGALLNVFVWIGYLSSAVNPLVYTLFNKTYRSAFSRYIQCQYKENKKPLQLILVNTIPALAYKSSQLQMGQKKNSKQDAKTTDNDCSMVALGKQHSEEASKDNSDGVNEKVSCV

[12] = target: T2, 5-HT1AR F112^3.28W + M92^2.60F; test: GloSensor cAMP assay in HEK293A cells; assay type: cell-based
5-HT1AR wildtype [13] = target: T1, 5-HT1AR wildtype; test: GloSensor cAMP accumulation in HEK293AΔGi/o; assay type: cell-based; conditions: read-out: Emax [% ± SEM], cAMP accumulation

Sequence of neurotensin NTS1 (P30989 whole entry): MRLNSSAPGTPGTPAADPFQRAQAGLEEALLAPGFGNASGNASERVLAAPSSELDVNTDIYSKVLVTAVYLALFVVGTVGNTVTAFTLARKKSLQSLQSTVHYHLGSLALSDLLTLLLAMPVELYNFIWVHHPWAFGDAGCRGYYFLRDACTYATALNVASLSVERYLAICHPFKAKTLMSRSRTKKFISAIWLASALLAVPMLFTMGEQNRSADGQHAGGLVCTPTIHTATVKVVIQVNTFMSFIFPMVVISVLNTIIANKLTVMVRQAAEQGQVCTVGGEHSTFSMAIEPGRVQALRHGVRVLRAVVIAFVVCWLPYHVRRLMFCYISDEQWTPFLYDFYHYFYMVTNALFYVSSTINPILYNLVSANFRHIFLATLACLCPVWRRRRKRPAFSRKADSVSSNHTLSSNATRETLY

Compound: COc1ccccc1OCCNCCCOc1ccc2c(c1)NC(=O)CO2 [ST171]
- Ki (neurotensin NTS1; Ki [nM ± SD]): > 50000 nM
- Ki (neurotensin NTS1; pKi): > 50100 nM
- Ki (adrenergic α2B; Ki [nM ± SD]): 110 ± 60 nM
- Ki (adrenergic α2B; pKi): 103 nM
- Emax (5-HT1AR wildtype [1]): < 5%
- response latency, hot plate in 5-HT1AR KO mice (5-HT1AR KO mice; 10 mg/kg): no significant antinociceptive effect
- response latency, 52°C hot plate (male C56BL/6 mice [2]): antinociceptive
- Ki (dopamine D1; Ki [nM ± SD]): 260 ± 170 nM
- Ki (dopamine D1; pKi): 209 nM
- EC50 ([3]; HEK293AΔGs, F112W + M92F, read-out: EC50 [nM ± SEM], inhibition of cAMP accumulation): 1.8 ± 0.6 nM
- Emax [3]: 85 ± 11%
- conditioned place preference (rewarding properties) (mice [4]): rewarding; also recorded: induces CPP
- Ki (adrenergic α2C; Ki [nM ± SD]): 28 ± 12 nM
- Ki (adrenergic α2C; pKi): 25.9 nM
- Emax (5-HT1AR [5]): < 5%
- time in center and open arms, plus maze (mice [6]; 1 or 5 mg/kg, 30 min before test): spent more time in the center
- anxiolytic effect, plus maze (mice [6]; analgesic dose (10 mg/kg)): anxiolytic effects of the drug disappeared
- Emax (5-HT1AR + Gαi2): 57 ± 7%
- EC50 (5-HT1AR + Gαi2; HEK293AΔGi/o + Gαi2, read-out: EC50 [nM ± SEM], inhibition of cAMP accumulation): 4.4 ± 1 nM
- EC50 (5-HT1AR [7]): 1.6 nM
- displacement of the radiolabeled ligand [3H]WAY100,635 (5-HT1AR [8]): more than 80%
- EC50 (5-HT1AR + Gαi1): 2.5 ± 0.7 nM
- EC50 (5-HT1BR): 3.7 nM
- Emax (5-HT1BR): 94%
- response latency, Hargreaves (male C56BL/6 mice [9]): antinociceptive
- antinociception, Hargreaves, lower doses (male C56BL/6 mice [9]; 1 and 5 mg/kg): not as antinociceptive as the 10 mg/kg dose
- Emax (5-HT1AR [10]; CHO-K1, CAMYEL, PTX addition; read-out: Emax, cAMP effect in the presence of PTX): < 5%
- Emax (5-HT1AR [10]; CHO-K1, read-out: Emax [%±SEM], inhibition of cAMP accumulation): 87 ± 1%
- EC50 (5-HT1AR [10]; CHOK1, CAMYEL, wildtype; read-out: EC50 left [nM±SEM], inhibition of cAMP accumulation): 0.88 ± 0.3 nM
- mechanical thresholds, von Frey (male C56BL/6 mice [11]): significantly increasing mechanical thresholds
- Ki (5-HT2AR; 5-HT2A, read-out: pKi (converted)): 260 nM
- Ki (5-HT2AR; 5-HT2AR, HEK 293T membranes, read-out: Ki [nM ± SEM]): 280 ± 30 nM
- Emax ([12]; HEK293-A, read-out: Emax [%±SEM], inhibition of cAMP accumulation): 77 ± 5%
- EC50 ([12]; HEK293A, GloSensor, F112W + M92F; read-out: EC50 left [nM±SEM], inhibition of cAMP accumulation): 1.7 ± 0.4 nM

Compound: Cc1ccc(CNCC2(F)CCN(C(=O)c3ccc(F)c(Cl)c3)CC2)nc1 [befiradol, reference compound]
- Emax (5-HT1AR wildtype [1]): 79 ± 1%
- response latency, hot plate in 5-HT1AR KO mice (5-HT1AR KO mice; 1.0 mg/kg): no significant antinociceptive effect
- response latency, 52°C hot plate (male C56BL/6 mice [2]): antinociceptive
- Emax [3]: 99 ± 7%
- response latency, Hargreaves (male C56BL/6 mice [9]): antinociceptive
- Emax (5-HT1AR [10]; CHO-K1; read-out: Emax [%±SEM], inhibition of cAMP accumulation): 91 ± 3%
- Esat [%±SEM], efficacy at saturating ligand concentrations (5-HT1AR [10]; CHOK1, CAMYEL; relative to serotonin maximum inhibition): 65 ± 4%
- Emax (5-HT1AR wildtype [13]): 74 ± 3%
- mechanical thresholds, von Frey (male C56BL/6 mice [11]): significantly increasing mechanical thresholds
- Ki (5-HT2AR): 15000 nM
- Emax ([12]; HEK293-A; read-out: Emax [%±SEM], inhibition of cAMP accumulation): 92 ± 7%
